Measured values: a melting point compilation (Tetko et al.; mined from patent text by program, amines drawn as free bases though some values may be those of a salt)

| melting point | SMILES |
| --- | --- |
| 149 to 150 °C | COc1ccc2c(-c3cccc(F)c3)noc2c1Cl |
| 295 to 298 °C | Cc1n[nH]c(-c2ccc(F)cc2)c1-c1ccc2c(c1)NC(=O)CO2 |
| 219 °C | CCCCc1[nH]c(Cc2ccccc2)nc(=O)c1Cc1ccc(-c2ccccc2C(=O)O)cc1 |
| 219 to 221 °C | CCc1[nH]c(=O)[nH]c1C(=O)c1cccnc1 |
| 284 to 287 °C | Cn1c2cc(C#N)ccc2c2nc3ccccc3nc21 |
| 84 to 86 °C | COC1(c2ccc(Sc3ccc4c(c3)CCC(=O)N4C)s2)CCOCC1 |
| 96.5 to 98.5 °C | COc1cc(C(C)=O)c(F)cc1Cl |
| 84 to 86 °C | O=C(CN1CC(O)CC1=O)Oc1ccc(Cl)c(Cl)c1Cl (stereo not drawn) |
| 203 °C | Cc1c(C(=O)O)cnn1CCO |
| > 280 °C | CS(=O)(=O)N1CCC(C2=C(C#N)C(c3cccc(C#N)c3Br)c3c[nH]nc3N2)CC1 (stereo not drawn) |
| 148 to 151 °C | CC(C)Nc1nc2c(F)c(F)c(F)cc2n1[C@@H]1O[C@H](C)[C@@H](O)[C@H]1O |
| 278 to 279 °C | Cc1ccc2c(c1)OCc1nc(C(=O)O)cn1-2 |
| 261 to 264 °C | Nc1ccc2c(c1)S(=O)(=O)c1ccccc1-2 |
| 56 to 58 °C | CCOC(=O)c1c(C)nc2c(ncn2C)c1Cl |
| 132 to 134 °C | CC(C)(C)OC(=O)NNc1ccc([N+](=O)[O-])cn1 |
| 188 to 193 °C | CC(=O)OCc1c(-c2cc(Nc3cc4n(n3)CCN(C)C4)c(=O)n(C)n2)cccc1-n1ncc2cc(C(C)(C)C)cc(F)c2c1=O |
| 224 to 226 °C | COc1cc2ccc(C(=O)N3CCN(C(=O)c4cc(OC)c(OC)c(OC)c4)CC3)cc2cc1OC |
| 315 to 317 °C | O=c1cc(-c2ccncc2)nc2n1Cc1ccccc1N2 |
| 123 to 125 °C | CC(C)(C)C(=O)OCCN1CCN(c2nc(N)ncc2Oc2ccc(Cl)cc2)CC1 |
| 118 °C | C[C@@H]1CCN(C(=O)OC(C)(C)C)C[C@@H]1N(C)C(=O)OC(C)(C)C |
| 224 to 227 °C | N#Cc1cc(F)c(N2CCN(Cc3cnc4c(c3)NC(=O)[C@@H]3CCCN43)CC2)cc1F |
| 156 to 158 °C | CC1(C)CC(=O)N(c2ccc(OC(=O)N3CCc4ccccc4C3)nc2)C(=O)C1 |
| 110 to 111 °C | CN(OCc1ccccc1)C(=O)Nc1cccc(S(C)(=O)=O)c1 |
| 182 to 185 °C | CCOCC(=O)Nc1c(NCC(C)C)cc(C)n2nnnc12 |

| melting point | SMILES |
| --- | --- |
| 150 to 151 °C | Cc1ccc(N2CCN(c3c(C)c(C)c4c(c3C)CC(C)O4)CC2)cc1 (stereo not drawn) |
| 149 to 150 °C | C=C(c1ccc(N(C)C)cc1)c1ccc(N2CCCC2)cc1 |
| 62 to 64 °C | Cc1ncc(CCCOc2c(C)cc(-c3noc(C(F)(F)F)n3)cc2C)s1 |
| 62 to 64 °C | COc1ccc(CCCOc2c(C)cc(-c3noc(C(F)(F)F)n3)cc2C)cn1 |
| 141 to 143 °C | CCCC(=O)c1cc(C(=O)C(=O)OC(=O)C(=O)c2cc(C(=O)CCC)c(C)cc2NCC)c(NCC)cc1C |
| 126 to 129 °C | COC(=O)C1=Cc2cc(-c3ccc4c(c3)OCO4)ccc2SCC1 |
| 52 °C | COc1ccc(CCSCC2CCC2)cc1 |
| 98 to 99 °C | Clc1cc(Cl)c2ocnc2c1 |
| 192 to 193 °C | O=C(O)c1nc(Cl)cc([N+](=O)[O-])c1Cl |
| 159 °C | N#CSc1c(-c2ccccc2)[nH]c(Cl)c1C#N |
| 192 to 193 °C | CC(C)(C)OC(=O)N1CCN(CCSc2nc3cc(F)c(F)cc3[nH]2)CC1 |
| 123 to 126 °C | CCOc1cc2c(cc1OCC)[C@@H]1CCCC[C@@H]1N=C2c1ccc(Cl)nc1 (racemic) |
| 120 °C | OC1CCSC(=S)N1c1ccccn1 (stereo not drawn) |
| 76 to 77 °C | CCOC(=O)c1c(C(F)(F)F)nc(C(F)(F)F)c(C(=O)OCC)c1Cl |
| 110 to 111 °C | CCCCCCCN(CCN1CCN(CCSc2nc3ccccc3o2)CC1)C(=O)Nc1c(C(C)C)cccc1C(C)C |
| 75 °C | COC(=O)CCCOc1cc([N+](=O)[O-])c(C=O)cc1OC |
| 79 to 81 °C | CC1NS(=O)(=O)c2sccc21 (stereo not drawn) |
| > 268 °C | Oc1ccc(-c2ncc3ncc(-c4ccncc4)cc3n2)cc1 |
| 194 to 195 °C | CC(C)(O)C1CCN(Cc2ccc(C#CC(=O)Nc3ccc(-c4ccc(Cl)cc4)cc3)cc2)CC1 |
| 142 to 144 °C | C[C@H](NC(=O)c1c(F)cccc1[N+](=O)[O-])C(=O)O |
| 52 to 53.5 °C | COC(=O)c1sc(C(F)(F)F)cc1OCc1ccccc1 |
| 270 to 272 °C | O=C(O)COc1ccc(-c2coc3cc(OCC(=O)O)ccc3c2=O)cc1 |
| 158 to 159 °C | O=C(/C=C/C=C(c1cccc([N+](=O)[O-])c1)c1cccc([N+](=O)[O-])c1)NCCCCc1cccnc1 |
| 100 to 102 °C | O=Cc1cc(OCc2ccccc2)c(OCc2ccccc2)cc1Cl |

| melting point | SMILES |
| --- | --- |
| 210 °C | N=C(N)NCCCc1cc[nH]n1 |
| 153 to 155 °C | COC(=O)C(=NOCF)c1ccccc1Oc1ncnc(Oc2ccccc2Cl)c1F |
| 154 to 156 °C | CCOc1cc(C(CS(C)(=O)=O)N2C(=O)c3cccc(NC(=O)COCc4ccccc4)c3C2=O)ccc1OC (stereo not drawn) |
| 138 to 141 °C | COc1c(C)c(C)c(OCc2ccccc2)c(C)c1CN(C)CCOc1cc(C)ccc1C(C)C |
| 115 to 118 °C | COc1cc(S(C)(=O)=O)ccc1-c1nc(C)c(-c2cccnc2)[nH]1 |
| 147 to 149 °C | Cc1cn2nc(SCc3ccccc3)nc2nc1C |
| > 300 °C | COc1ccccc1-c1c(O)c2ccc(Cl)cc2[nH]c1=O |
| 198 to 200 °C | Cc1cc2c(s1)Oc1cccc(C)c1NC2=O |
| 283 to 284 °C | CC(=O)Nc1cc([N+](=O)[O-])ccc1O |
| 142 to 144 °C | CC(=O)N1CCN=C1Nc1cccc2c1CCCC2 |
| 79.5 to 80.5 °C | COC(=O)C1=Cc2cc(Br)cnc2N(CC(C)C)CCC1 |
| 114 to 116 °C | O=C(Nc1c(OCc2ccccc2)cccc1C(=O)O)c1ccccc1 |
| 95 to 97 °C | CC(C)COC(=O)N[C@H](CC(=O)O)Cc1ccccc1 |
| 268 to 270 °C | CC(C)(C)c1ccc(-c2ccc(N3CCCN(c4ccc(-c5ccc(C(C)(C)C)cc5)cn4)CC3)nc2)cc1 |
| > 250 °C | Cc1c(-c2csc(-c3ccncc3)n2)c(=O)[nH]c2ccccc12 |
| 72 to 73 °C | N#Cc1ccc2oc(CCc3ccc(CO)cc3)cc2c1 |
| 62 °C | O=CCC1Cc2ccc(F)cc2C1=O (racemic) |
| 244 °C | NS(=O)(=O)c1cc2nc[nH]c2cc1Cl |
| 204 °C | CC(Cl)C(=O)Nc1ccccc1C(=O)CC(=O)Nc1nccs1 (stereo not drawn) |
| 219 °C | Cc1cc(-c2c(-c3ccc(OCC(F)(F)F)c(C(F)(F)F)c3)nc3cncn3c2C(F)(F)F)ccn1 |
| 51 to 57 °C | O=S(Cc1noc(Cc2ccccc2)n1)c1ccc(CCNC[C@H](O)COc2ccc(O)cc2)cc1 (stereo partly drawn) |
| 172 to 174 °C | COc1ccc(C(=O)Nc2ccc(F)c(F)c2)cc1NCc1cccs1 |
| 154 to 156 °C | CN(C)c1ccc(-c2ccnc(Nc3ccc4c(c3)OCCO4)c2)cc1 |
| 117 to 118 °C | Cc1cc(SC(C)C)c(NC(=O)CSc2nc3ccccc3s2)c(SC(C)C)n1 |

| SMILES | melting point |
| --- | --- |
| CCOCC1=CC(=O)C=C2CCC3C4CCC(=O)C4(C)CCC3C21C (stereo not drawn) | 95 to 98 °C |
